Values quoted from earlier work as cited in patent US10953063B2, “Method of treating select cancers using timed administration of plant extract from species Physalis pubescens and Hedyotis diffusa willd” (priority 2018, dated 2021).

Tested on: human leukemia cells
Conditions: research findings

## Cc1cc2c(cc1O)C(=O)c1ccccc1C2=O [2-Hydroxy-3-Methylanthraguinone]
  apoptosis in human leukemia cells: induces apoptosis
